Activity calls are given as the source filed them. No cut-off for these calls is given here. Non-standard residues stand in square brackets, D forms with d. Residues, ends and D or L forms follow the SMILES beside them. ξ: configuration not given here. *: point of attachment. Palmitoyl = CCCCCCCCCCCCCCCC(=O)*; Lauroyl = CCCCCCCCCCCC(=O)*; ξHyp = O=C(O)C1CC(O)CN1
Tests used:
Escherichia coli [1] = assay: Bactericidal activity against Escherichia coli up to 18 hrs by time-kill assay; format: functional, organism-based
Escherichia coli [2] = assay: Antimicrobial activity against Escherichia coli after 16 to 20 hrs by broth micro-dilution method; format: functional, organism-based
Staphylococcus aureus [3] = assay: Bactericidal activity against Staphylococcus aureus up to 4 times MIC up to 18 hrs by time-kill assay; format: functional, organism-based
Staphylococcus aureus [4] = assay: Bactericidal activity against Staphylococcus aureus at 4 times MIC up to 18 hrs by time-kill assay
Pseudomonas aeruginosa [5] = assay: Bacteriostatic activity against Pseudomonas aeruginosa PCM 2562 (ATCC9027) after 16 to 20 hrs by broth micro-dilution method; format: functional, organism-based
Staphylococcus aureus [6] = assay: Bacteriostatic activity against Staphylococcus aureus after 16 to 20 hrs by broth micro-dilution method; format: functional, organism-based
Staphylococcus aureus [7] = assay: Antimicrobial activity against Staphylococcus aureus after 16 to 20 hrs by broth micro-dilution method; format: functional, organism-based
Candida albicans [8] = assay: Fungicidal activity against Candida albicans at 8 times MIC after 4 hrs by time-kill assay; format: functional, organism-based
Candida albicans [9] = assay: Fungicidal activity against Candida albicans at 4 to 8 times MIC after 4 hrs by time-kill assay; format: functional, organism-based
Candida albicans [10] = assay: Fungicidal activity against Candida albicans at 250 ug/ml by time-kill assay; format: functional, organism-based
Staphylococcus aureus [11] = assay: Bactericidal activity against Staphylococcus aureus at 8 times MIC after 18 hrs by time-kill assay; format: functional, organism-based
Staphylococcus aureus [12] = assay: Bactericidal activity against Staphylococcus aureus after 16 to 20 hrs by broth micro-dilution method; format: functional, organism-based
Pseudomonas aeruginosa [13] = assay: Bactericidal activity against Pseudomonas aeruginosa PCM 2562 (ATCC9027) after 16 to 20 hrs by broth micro-dilution method; format: functional, organism-based
Pseudomonas aeruginosa [14] = assay: Bactericidal activity against Pseudomonas aeruginosa PCM 2562 (ATCC9027) after 4 hrs by broth micro-dilution method; format: functional, organism-based
Pseudomonas aeruginosa [15] = assay: Bactericidal activity against Pseudomonas aeruginosa PCM 2562 (ATCC9027) after 18 hrs by broth micro-dilution method; format: functional, organism-based
Candida albicans [16] = assay: Fungicidal activity against Candida albicans by time-kill assay; format: functional, organism-based
Candida albicans [17] = assay: Antifungal activity against Candida albicans after 16 to 20 hrs by broth micro-dilution method; format: functional, organism-based
Staphylococcus aureus [18] = assay: Bactericidal activity against Staphylococcus aureus at 8 times MIC up to 18 hrs by time-kill assay; format: functional, organism-based
Staphylococcus aureus [19] = assay: Bactericidal activity against Staphylococcus aureus at 1 to 4 times MIC up to 18 hrs by time-kill assay; format: functional, organism-based
Staphylococcus aureus [20] = assay: Bactericidal activity against Staphylococcus aureus at 0.5 to 1 time MIC up to 18 hrs by time-kill assay; format: functional, organism-based
Staphylococcus aureus [21] = assay: Bactericidal activity against Staphylococcus aureus at 4 times MIC up to 18 hrs by time-kill assay; format: functional, organism-based

## CCCCCCCCCCCC(=O)NCC(=O)N1CC(O)CC1C(=O)N[C@H](CCCCN)C(=O)O (stereo partly drawn)
Escherichia coli [1]
  Activity: Active
Escherichia coli [2]
  Activity: Active
Staphylococcus aureus [3]
  Activity: Active
Staphylococcus aureus [4]
  Activity: Active

## NCCCC[C@H](NC(=O)[C@H](Cc1cnc[nH]1)NC(=O)CN)C(=O)O (H-Gly-His-Lys-OH)
Pseudomonas aeruginosa [5]
  Activity: Active
Staphylococcus aureus [6]
  Activity: Active
Escherichia coli [2]
  Activity: Active
Staphylococcus aureus [7]
  Activity: Active

## CCCCCCCCCCCCCCCCCC(=O)NCC(=O)N1CC(O)CC1C(=O)N[C@@H](CCCCN)C(=O)O (stereo partly drawn)
Candida albicans [8]
  Activity: Active
Escherichia coli [1]
  Activity: Active
Candida albicans [9]
  Activity: Active
Staphylococcus aureus [3]
  Activity: Active
Candida albicans [10]
  Activity: Active

## CCCCCCCCCCCC(=O)NCC(=O)N1CC(O)CC1C(=O)N[C@@H](CCCCN)C(=O)O (stereo partly drawn)
Pseudomonas aeruginosa [5]
  Activity: Active
Escherichia coli [1]
  Activity: Active
Staphylococcus aureus [11]
  Activity: Active
Staphylococcus aureus [6]
  Activity: Active
Escherichia coli [2]
  Activity: Active
Staphylococcus aureus [12]
  Activity: Active
Pseudomonas aeruginosa [13]
  Activity: Active
Pseudomonas aeruginosa [14]
  Activity: Active
Pseudomonas aeruginosa [15]
  Activity: Active

## CC(=O)NCC(=O)N1CC(O)CC1C(=O)N[C@H](CCCCN)C(=O)O (stereo partly drawn)
Escherichia coli [2]
  Activity: Active

## NYSTATIN
Candida albicans [16]
  Activity: Active
Candida albicans [17]
  MFC: 7.8 µg/mL
  MFC50: 1.9 µg/mL
  MFC90: 7.8 µg/mL
  MIC50: 1.9 µg/mL
  MIC90: 3.9 µg/mL

## CCCCCCCCCCCC(=O)NCC(=O)N1CC(O)CC1C(=O)N[C@@H](CCSC)C(=O)N[C@@H](CCCCN)C(=O)O (stereo partly drawn) (Lauroyl-G[ξHyp]MK-OH)
Staphylococcus aureus [18]
  Activity: Active

## CCCCCCCCCCCCCCCCCC(=O)NCC(=O)N1CC(O)CC1C(=O)N[C@H](CCCCN)C(=O)O (stereo partly drawn)
Escherichia coli [1]
  Activity: Active

## CCCCCCCCCCCCCCCC(=O)NCC(=O)N1CC(O)CC1C(=O)N[C@@H](CCCCN)C(=O)O (stereo partly drawn) (Palmitoyl-Gly-[ξHyp]-Lys-OH)
Escherichia coli [1]
  Activity: Active
Staphylococcus aureus [19]
  Activity: Active
Staphylococcus aureus [20]
  Activity: Active
Staphylococcus aureus [21]
  Activity: Active
Staphylococcus aureus [3]
  Activity: Active
Pseudomonas aeruginosa [14]
  Activity: Active
Pseudomonas aeruginosa [15]
  Activity: Active
